Measurements published in ChEMBL document CHEMBL1201862, “PubChem BioAssay data set” (2004).
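Five concentrations, 48 hours, 96-well plates. Here, GI50 denotes the concentration required for 50% inhibition of growth.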 Active and inactive are the calls of the source. Cut-off read from the data, not from the text of the source: active = GI50 up to about 1.1 µM and inactive = higher.

Columns and labels:
Experiment in all cases: NCI tumour cell line growth inhibition, 48 h
A498 = tested on: A498
ACHN = tested on: ACHN
DMS-114 = tested on: DMS-114
DU-145 = tested on: DU-145
EKVX = tested on: EKVX
HL-60 = tested on: HL-60
Hs-578T = tested on: Hs-578T
KM-20L2 = tested on: KM-20L2
LOX IMVI = tested on: LOX IMVI
MDA-MB-231 = tested on: MDA-MB-231
MDA-MB-435 = tested on: MDA-MB-435
MOLT-4 = tested on: MOLT-4
Malme-3M = tested on: Malme-3M
NCI-H226 = tested on: NCI-H226
NCI-H460 = tested on: NCI-H460
NCI/ADR-RES = tested on: NCI/ADR-RES
RXF 393 = tested on: RXF 393
SNB-19 = tested on: SNB-19
SW-620 = tested on: SW-620
UACC-62 = tested on: UACC-62

| SMILES | GI50 (A498) | GI50 (ACHN) | GI50 (DMS-114) | GI50 (DU-145) | GI50 (EKVX) | GI50 (HL-60) | GI50 (Hs-578T) | GI50 (KM-20L2) | GI50 (LOX IMVI) | GI50 (MDA-MB-231) | GI50 (MDA-MB-435) | GI50 (MOLT-4) | GI50 (Malme-3M) | GI50 (NCI-H226) | GI50 (NCI-H460) | GI50 (NCI/ADR-RES) | GI50 (RXF 393) | GI50 (SNB-19) | GI50 (SW-620) | GI50 (UACC-62) |
| --- | --- | --- | --- | --- | --- | --- | --- | --- | --- | --- | --- | --- | --- | --- | --- | --- | --- | --- | --- | --- |
| COc1cccc2c1C(=O)c1c(O)c3c(c(O)c1C2=O)C[C@@](O)(C(=O)CO)C[C@@H]3OC1CC(N2CCOCC2)C(O)C(C)O1 (stereo partly drawn) | 3.15 nM (active) | 5.13 nM (active) | 2.5 nM (active) | 49.7 nM (active) | 15.9 nM (active) | 2.5 nM (active) | 24.9 nM (active) | 2.5 nM (active) | 2.5 nM (active) | 55.1 nM (active) | 47.8 nM (active) | 3.33 nM (active) | 2.59 nM (active) | 5.62 nM (active) | 2.5 nM (active) | 2.52 nM (active) | 3.96 nM (active) | 2.5 nM (active) | 7.91 nM (active) | – |
| CC(=O)OC1CC2(O)C(CCC3(C)C(c4ccc(=O)oc4)CCC32O)C2(C)C1=CC(O)C1OC12 (stereo not drawn) | 113 nM (active) | – | 25 nM (active) | – | 42 nM (active) | 57.5 nM (active) | – | 67 nM (active) | 68.7 nM (active) | – | – | 28.1 nM (active) | 41.9 nM (active) | 115 nM (active) | 27.9 nM (active) | 37.8 nM (active) | 33.1 nM (active) | 118 nM (active) | 38.7 nM (active) | 45.7 nM (active) |
| C=CCC(O[Si](C)(C)C(C)(C)C)c1cc(O[Si](C)(C)C(C)(C)C)ccc1OC (stereo not drawn) | 46900 nM (inactive) | – | > 59700 nM (inactive) | – | > 100000 nM (inactive) | > 100000 nM (inactive) | – | > 100000 nM (inactive) | > 94200 nM (inactive) | – | – | > 70800 nM (inactive) | > 100000 nM (inactive) | > 53600 nM (inactive) | > 70000 nM (inactive) | > 64700 nM (inactive) | 58900 nM (inactive) | > 62200 nM (inactive) | > 100000 nM (inactive) | > 81300 nM (inactive) |
| CN1CCN(c2cc(-c3cc4ccccc4o3)oc(=O)c2C#N)CC1 | 63800 nM (inactive) | 59000 nM (inactive) | 69200 nM (inactive) | – | 45800 nM (inactive) | 43900 nM (inactive) | – | 89500 nM (inactive) | 48300 nM (inactive) | – | – | 53000 nM (inactive) | > 100000 nM (inactive) | 14200 nM (inactive) | 58100 nM (inactive) | – | 72600 nM (inactive) | > 100000 nM (inactive) | > 100000 nM (inactive) | – |
| COc1cc(CCCOC2OC(COC3OCC(O)C(O)C3O)C(O)C(O)C2O)cc2cc(-c3ccc4c(c3)OCO4)oc12 (stereo not drawn) | > 27700 nM (inactive) | – | > 175000 nM (inactive) | – | > 175000 nM (inactive) | > 175000 nM (inactive) | – | > 175000 nM (inactive) | > 175000 nM (inactive) | – | – | > 175000 nM (inactive) | > 175000 nM (inactive) | > 175000 nM (inactive) | > 175000 nM (inactive) | > 175000 nM (inactive) | > 94000 nM (inactive) | > 175000 nM (inactive) | > 175000 nM (inactive) | > 175000 nM (inactive) |
| Cc1ccc2cc3cccc(C(=O)NCCN(C)C)c3nc2c1 | 419 nM (active) | – | 929 nM (active) | – | 1140 nM (inactive) | 565 nM (active) | – | 733 nM (active) | 818 nM (active) | – | – | 321 nM (active) | 1060 nM (active) | 927 nM (active) | 315 nM (active) | 771 nM (active) | 1010 nM (active) | 925 nM (active) | 514 nM (active) | 1370 nM (inactive) |
